Experimental data taken from ChEMBL document CHEMBL5365532, “Discovery of Triazinone Derivatives as Novel, Specific, and Direct NLRP3 Inflammasome Inhibitors for the Treatment of DSS-Induced Ulcerative Colitis” (J Med Chem, 2023).
Activity calls are given as the source filed them. The rule behind the calls is not given here.

Legend:
THP-1 [1] = assay: Inhibition of lysosomal damage in PMA-differentiated human THP-1 cells at 0.2 to 45 uM pretreated with LPS for 3 hrs followed by incubation with compound for 40 mins and later stimulated with nigericin for 35 mins by AO staining based analysis; format: functional, cell-based; settings: dose 0.2-45 µM, time 75.0 min
Mus musculus [2] = assay: Antiinflammatory activity against DSS-induced ulcerative colitis C57BL/6 mouse model assessed as improvement in crypt deformation in colon at 10 to 30 mg/kg, ip fed with DSS for 6 days followed by administration with compound for 5 days and measured on day 11 by H and E staining based analysis; format: functional, organism-based; settings: dose 10-30 mg/kg, time 5.0 day
Mus musculus [3] = assay: Antiinflammatory activity against DSS-induced ulcerative colitis C57BL/6 mouse model assessed as decrease in TNF-alpha level in colon at 10 to 30 mg/kg, ip fed with DSS for 6 days followed by administration with compound for 5 days and measured on day 11 by ELISA; format: functional, organism-based; settings: dose 10-30 mg/kg, time 5.0 day
Mus musculus [4] = assay: Antiinflammatory activity against DSS-induced ulcerative colitis C57BL/6 mouse model assessed as decrease in disease activity index at 20 to 30 mg/kg, ip fed with DSS for 6 days followed by administration with compound for 5 days; format: functional, organism-based; settings: dose 20-30 mg/kg, time 5.0 day
Homo sapiens [5] = organism: Homo sapiens; assay: Binding affinity to N-terminal GST-tagged human NLRP3deltaLRR mutant (1 to 649 residues) expressed in Escherichia coli BL21 assessed as increase in protein thermal stability at 10 to 20 uM at 48 to 72 degC by CETSA analysis; settings: dose 10-20 µM
Mus musculus [6] = assay: (§1) Antiinflammatory activity against DSS-induced ulcerative colitis C57BL/6 mouse model assessed as decrease in goblet cell loss in colon at 10 to 30 mg/kg, ip fed with DSS for 6 days followed by administration with compound for 5 days and measured on day 11 by H and E staining based analysis; format: functional, organism-based; settings: dose 10-30 mg/kg, time 5.0 day
THP-1 [7] = assay: Effect on pro-IL-1beta protein expression in PMA-differentiated human THP-1 cells at 0.2 to 0.8 uM pretreated with compound for 40 mins followed by LPS challenge for 3 hrs by western blot analysis; format: functional, cell-based; settings: dose 0.2-0.8 µM, time 220.0 min
Mus musculus [8] = assay: as §1, with “inflammatory” for “goblet”, “infiltration” for “loss”; format: functional, organism-based; settings: dose 10-30 mg/kg, time 5.0 day
BMDM = assay: Cytotoxicity against C57BL/6 mouse BMDM cells assessed as cell viability at 0.16 to 20 uM incubated for 24 hrs by CCK8 assay; format: toxicity, cell-based; settings: dose 0.16-20 µM
THP-1 [9] = assay: Effect on ASC protein expression in PMA-differentiated human THP-1 cells at 0.2 to 0.8 uM pretreated with LPS for 3 hrs followed by incubation with compound for 40 mins and later stimulated with nigericin for 35 mins by western blot analysis; format: functional, cell-based; settings: dose 0.2-0.8 µM, time 75.0 min
[10] = MRT (0 to t) in BALB/c mouse at 10 mg/kg, po; format: ADME, organism-based; settings: in vivo
Mus musculus [11] = assay: Antiinflammatory activity against DSS-induced ulcerative colitis C57BL/6 mouse model assessed as decrease in IL-1 beta level in colon at 10 to 30 mg/kg, ip fed with DSS for 6 days followed by administration with compound for 5 days and measured on day 11 by ELISA; format: functional, organism-based; settings: dose 10-30 mg/kg, time 5.0 day
Homo sapiens [12] = organism: Homo sapiens; assay: Binding affinity to N-terminal GST-tagged human NLRP3deltaLRR mutant (1 to 649 residues) expressed in Escherichia coli BL21 assessed as decrease in pronase-mediated protein degradation at 1 to 100 uM incubated with compound for 50 mins followed by pronase digestion for 30 mins by DARTS analysis; settings: dose 1-100 µM, time 80.0 min
[13] = Tmax in BALB/c mouse at 10 mg/kg, iv; format: ADME, organism-based; settings: in vivo

CC(C)c1nn(Cc2nnc(-c3ccc(C(F)(F)F)nc3Cl)o2)c(=O)c2cc3sc(Cl)cc3n12
inhibition (THP-1 [1]): inactive | Activity (Mus musculus [2]): Active | Activity (Mus musculus [3]): Active | Activity (Mus musculus [4]): Active | Activity (Homo sapiens [5]): Active | Activity (Mus musculus [6]): Active | Activity (THP-1 [7]): inactive | Activity (Mus musculus [8]): Active | Activity (BMDM): Non-Toxic | Activity (THP-1 [9]): inactive | MRT last [10]: 3.27 h | Activity (Mus musculus [11]): Active | Activity (Homo sapiens [12]): Active | Tmax [13]: 4.8 min
